Assay results as given in US10208074B2, “Pyrazole compounds and method for making and using the compounds” (Rigel Pharmaceuticals, Inc., priority 2015, dated 2019).
Structures can show the parent of a compound that is named as a salt. Where two headings read alike, the source gives them in different places.

Tests used:
IL-23p19 = test: LPS induced IL23p19 in THP-1 cells (with IFNγ primed) assay; format: cell-based, Human
Method in brief: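 THP-1 cells primed ~18 h with IFNγ (50 ng/mL), pre-incubated 1 h with compound at 37 °C, then stimulated 18 h with LPS (1 ug/mL final). Supernatant IL-23p19 measured by sandwich ELISA with chemiluminescent read-out; EC50 from curve fitting. Toxicity checked on the remaining cells by Cell Titer Glo.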

IL-23 (p19/p40) = test: IL23-p19 ELISA, Dendritic, LPS (compound screening using DC cells); format: cell-based, Human
Method in brief: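 Human PBMC-derived dendritic cells (7 d GM-CSF 100 ng/ml + IL-4 20 ng/ml), primed 24 h with IFNγ 50 ng/ml, pre-incubated 1 h with compound, then stimulated 18 h with LPS 1 μg/ml. Supernatant IL-23 measured by p19-capture/p40-detection chemiluminescent ELISA; CellTiter Glo checks cytotoxicity.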

[1] = THP-1 cells, IFNγ primed, LPS 1 ug/mL, 18 hours, 10 pt, read-out: IL23-p19 ELISA, THP1-IFNy, LPS, 10 pt EC50
[2] = PBMC-derived DC cells, IFNγ primed, LPS 1 μg/ml, 18 hours, 10 pt, read-out: IL23-p19 ELISA, Dendritic, LPS, 10 pt, EC50
[3] = Homo sapiens, THP-1, 18 h, THP-1 cells, IFNγ primed, LPS 1 ug/mL, 18 hours, 10 pt, read-out: IL23-p19 ELISA, THP1-IFNy, LPS, 10 pt EC50
[4] = Homo sapiens, 18 h, PBMC-derived DC cells, IFNγ primed, LPS 1 μg/ml, 18 hours, 10 pt, read-out: IL23-p19 ELISA, Dendritic, LPS, 10 pt, EC50

Structure (SMILES) | EC50 (IL-23p19; [3]) [µM] | EC50 (IL-23 (p19/p40); [4]) [µM] | also measured
Cn1cc(NC(=O)c2csc(-c3cnn(COP(=O)(O)O)c3)n2)c(-c2ccccn2)n1 [II-38, Potassium (4-(4-((1-methyl-3-(pyridin-2-yl)-1H-pyrazol-4-yl)carbamoyl)thiazol-2-yl)-1H-pyrazol-1-yl)methyl phosphate] |  |  | EC50 (IL-23p19; Homo sapiens, THP-1, 18 h, read-out: IL23-p19 ELISA, THP1-IFNy, LPS, 10 pt EC50 (μM)): 0.505 µM; EC50 (IL-23 (p19/p40); Homo sapiens, 18 h, read-out: IL23-p19 ELISA, Dendritic, LPS, 10 pt, EC50 (μM)): 0.771 µM
CCO[C@H]1C[C@@H](n2cc(NC(=O)c3csc(-c4cn[nH]c4F)n3)c(-c3ccccn3)n2)C1 [II-72, N-(1-((1s,3s)-3-ethoxycyclobutyl)-3-(pyridin-2-yl)-1H-pyrazol-4-yl)-2-(5-fluoro-1H-pyrazol-4-yl)thiazole-4-carboxamide] |  |  | EC50 (IL-23p19; [1]): 1.14 µM; EC50 (IL-23 (p19/p40); [2]): 0.14 µM
Cn1cc(NC(=O)c2ccc(-c3cn[nH]c3)o2)c(-c2ccc(OC3COC3)cn2)n1 [Compound I-108, N-(1-methyl-3-(5-(oxetan-3-yloxy)pyridin-2-yl)-1H-pyrazol-4-yl)-5-(1H-pyrazol-4-yl)furan-2-carboxamide] | 0.491 | 0.73 | 
COCCOCCn1cc(NC(=O)c2ccc(-c3cn[nH]c3)o2)c(-c2ccccn2)n1 [Compound I-16, N-(1-(2-(2-methoxyethoxy)ethyl)-3-(pyridin-2-yl)-1H-pyrazol-4-yl)-5-(1H-pyrazol-4-yl)furan-2-carboxamide] |  | 0.403 | EC50 (IL-23p19; [1]): 0.125 µM
CC(C)NC(=O)N1CC(n2cc(NC(=O)c3ccc(-c4cn[nH]c4)o3)c(-c3ccccn3)n2)C1 [Compound I-85, 3-[4-{5-(1H-Pyrazol-4-yl)furan-2-carboxamido}-3-(pyridine-2-yl)-1H-pyrazol-1-yl]-N-isopropylazetidine-1-carboxamide, free base] | 0.0767 | 0.0196 | 
O=C(Nc1cn([C@H]2C[C@@H](O)C2)nc1-c1ccccn1)c1ccc(-c2cn[nH]c2)o1 [Compound I-32, N-(1-((1,3-cis)-3-hydroxycyclobutyl)-3-(pyridin-2-yl)-1H-pyrazol-4-yl)-5-(1H-pyrazol-4-yl)furan-2-carboxamide] | 0.0288 | 0.083 | 
O=C(Nc1cn([C@H]2C[C@@H](OCC(F)(F)F)C2)nc1-c1ccccn1)c1ccc(-c2cn[nH]c2)o1 [Compound I-146, 5-(1H-pyrazol-4-yl)-N-(3-(pyridin-2-yl)-1-((1s,3s)-3-(2,2,2-trifluoroethoxy)cyclobutyl)-1H-pyrazol-4-yl)furan-2-carboxamide formate] | 0.149 | 0.37 | 
CCCNC(=O)N1CC(n2cc(NC(=O)c3ccc(-c4cn[nH]c4)o3)c(-c3ccccn3)n2)C1 [Compound I-86, 3-[4-{5-(1H-Pyrazol-4-yl)furan-2-carboxamido}-3-(pyridine-2-yl)-1H-pyrazol-1-yl]-N-propylazetidine-1-carboxamide, free base] | 0.0614 | 0.0637 | 
CN1CCN(CCn2cc(NC(=O)c3ccc(-c4cn[nH]c4)o3)c(-c3ccccn3)n2)CC1 [Compound I-112, N-(1-(2-(4-methylpiperazin-1-yl)ethyl)-3-(pyridin-2-yl)-1H-pyrazol-4-yl)-5-(1H-pyrazol-4-yl)furan-2-carboxamide] | 0.0428 | 0.0407 | 
COCCn1cc(NC(=O)c2ccc(-c3cnn(COP(=O)(OC(C)(C)C)OC(C)(C)C)c3)o2)c(-c2ccccn2)n1 [Compound I-10, di-tert-butyl ((4-(5-((1-(2-methoxyethyl)-3-(pyridin-2-yl)-1H-pyrazol-4-yl)carbamoyl)furan-2-yl)-1H-pyrazol-1-yl)methyl) phosphate] | 21.9 | 3.27 | 
CCO[C@@H]1C[C@H](n2cc(NC(=O)c3ccc(-c4cn[nH]c4)o3)c(-c3ccccn3)n2)C1F (stereo partly drawn) [Compound I-140, N-(1-((1S,3R)-3-ethoxy-2-fluorocyclobutyl)-3-(pyridin-2-yl)-1H-pyrazol-4-yl)-5-(1H-pyrazol-4-yl)furan-2-carboxamide formate] | 0.799 | 0.224 | 
CCO[C@H]1C[C@@H](n2cc(NC(=O)c3csc(-c4cnn(COP(=O)(O)O)c4)n3)c(-c3ccccn3)n2)C1 [II-83, (4-(4-((1-((1,3-cis)-3-ethoxycyclobutyl)-3-(pyridin-2-yl)-1H-pyrazol-4-yl)carbamoyl)thiazol-2-yl)-1H-pyrazol-1-yl)methyl dihydrogen phosphate] |  |  | EC50 (IL-23p19; [1]): 0.0863 µM; EC50 (IL-23 (p19/p40); [2]): 0.241 µM
COCCn1cc(NC(=O)c2ccc(-c3cnn(C(=O)OC(C)OC(=O)C(C)C)c3)o2)c(-c2ccccn2)n1 (stereo not shown) [Compound I-19, 1-(isobutyryloxy)ethyl 4-(5-((1-(2-methoxyethyl)-3-(pyridin-2-yl)-1H-pyrazol-4-yl)carbamoyl)furan-2-yl)-1H-pyrazole-1-carboxylate] | 0.3 | 0.337 | 
O=C(Nc1cn([C@H]2C[C@H](OCC(F)(F)F)C2)nc1-c1ccccn1)c1ccc(-c2cn[nH]c2)o1 [Compound I-128, 5-(1H-pyrazol-4-yl)-N-(3-(pyridin-2-yl)-1-(3-(2,2,2-trifluoroethoxy)cyclobutyl)-1H-pyrazol-4-yl)furan-2-carboxamide formate] | 0.134 | 0.0604 | 

More lines, main results first:

EC50 (IL-23p19; [3]) [µM] | EC50 (IL-23 (p19/p40); [4]) [µM] | Structure (SMILES) | also measured
2.49 | 0.537 | O=C(Nc1cn(C2CCOCC2)nc1-c1nnco1)c1csc(-c2cn[nH]c2)n1 [II-75, N-(3-(1,3,4-oxadiazol-2-yl)-1-(tetrahydro-2H-pyran-4-yl)-1H-pyrazol-4-yl)-2-(1H-pyrazol-4-yl)thiazole-4-carboxamide] | 
0.0853 | 0.451 | O=C(Nc1cn(CCOCC(F)(F)F)nc1-c1ccccn1)c1coc(-c2cc[nH]n2)n1 [III-7, 2-(1H-pyrazol-3-yl)-N-(3-(pyridin-2-yl)-1-(2-(2,2,2-trifluoroethoxy)ethyl)-1H-pyrazol-4-yl)oxazole-4-carboxamide] | 
0.0226 | 0.0105 | O=C(Nc1cn(C2CCOCC2)nc1-c1ccccn1)c1csc(-c2cn[nH]c2)n1 [II-10, 2-(1H-pyrazol-4-yl)-N-(3-(pyridin-2-yl)-1-(tetrahydro-2H-pyran-4-yl)-1H-pyrazol-4-yl)thiazole-4-carboxamide] | 
0.129 | 0.779 | CC(C)(O)Cn1cc(NC(=O)c2csc(-c3cn[nH]c3)n2)c(-c2ccccn2)n1 [II-1, N-(1-(2-hydroxy-2-methylpropyl)-3-(pyridin-2-yl)-1H-pyrazol-4-yl)-2-(1H-pyrazol-4-yl)thiazole-4-carboxamide] | 
0.0414 | 0.314 | CCO[C@H]1C[C@@H](n2cc(NC(=O)c3csc(-c4cnn(COP(=O)(O)O)c4)n3)c(-c3cccc(F)n3)n2)C1 [II-173, (4-(4-((1-((cis)-3-ethoxycyclobutyl)-3-(6-fluoropyridin-2-yl)-1H-pyrazol-4-yl)carbamoyl)thiazol-2-yl)-1H-pyrazol-1-yl)methyl dihydrogen phosphate] | 
0.0574 | 0.0987 | CCO[C@@H]1CC[C@H](n2cc(NC(=O)c3csc(-c4cn[nH]c4)n3)c(-c3ccccn3)n2)C1 (relative stereo) [II-147, N-(1-((cis)-3-ethoxycyclopentyl)-3-(pyridin-2-yl)-1H-pyrazol-4-yl)-2-(1H-pyrazol-4-yl)thiazole-4-carboxamide] | 
0.0749 | 0.0435 | O=C(Nc1cn(C2CNC2)nc1-c1ccccn1)c1csc(-c2cn[nH]c2)n1 [II-55, N-{1-(Azetidin-3-yl)-3-(pyridine-2-yl)-1H-pyrazol-4-yl}-2-(1H-pyrazol-4-yl)thiazole-4-carboxamide] | 
0.167 | 0.178 | COCCOCCn1cc(NC(=O)c2csc(-c3c[nH]nc3C)n2)c(-c2ccccn2)n1 [II-39, N-(1-(2-(2-methoxyethoxy)ethyl)-3-(pyridin-2-yl)-1H-pyrazol-4-yl)-2-(3-methyl-1H-pyrazol-4-yl)thiazole-4-carboxamide] | 
0.0413 | 0.0188 | Cc1n[nH]cc1-c1nc(C(=O)Nc2cn(C3COC3)nc2-c2ccccn2)cs1 [II-41, 2-(3-methyl-1H-pyrazol-4-yl)-N-(1-(oxetan-3-yl)-3-(pyridin-2-yl)-1H-pyrazol-4-yl)thiazole-4-carboxamide, formic acid salt] | 
0.0399 | 0.135 | O=C(Nc1cn(C2CCOCC2)nc1-c1ccccn1)c1coc(-c2cn[nH]c2)n1 [III-2, 2-(1H-pyrazol-4-yl)-N-(3-(pyridin-2-yl)-1-(tetrahydro-2H-pyran-4-yl)-1H-pyrazol-4-yl)oxazole-4-carboxamide] | 
0.135 | 0.248 | COCCn1cc(NC(=O)c2csc(-c3c[nH]nc3C)n2)c(-c2ccccn2)n1 [II-29, N-(1-(2-methoxyethyl)-3-(pyridin-2-yl)-1H-pyrazol-4-yl)-2-(3-methyl-1H-pyrazol-4-yl)thiazole-4-carboxamide, formic acid salt] | 
0.0986 | 0.0444 | O=C(Nc1cn(C2CCC2)nc1-c1ccccn1)c1csc(-c2cn[nH]c2)n1 [II-121, N-(1-cyclobutyl-3-(pyridin-2-yl)-1H-pyrazol-4-yl)-2-(1H-pyrazol-4-yl)thiazole-4-carboxamide] | 
